The experiment has as its target Histone deacetylase 2 (Homo sapiens, UniProt Q92769). Put plainly: Reporter Displacement Assay: HDAC2 containing a C-terminal HIS-Tag (Proteros) and fluorescently-labeled anti-HIS-antibody are diluted in one vial in assay buffer 50 mM Tris, pH 8.0, 1 mM DTT, 150 mM NaCl, and 0.01% Tween20. Components are pre-incubated for 30 min, then a small volume of reporter probe (Proteros) is added from a highly concentrated stock and incubation is continued for another 30 min. Final concentrations after adding the reporter probe amount to 20 nM HDAC2, 4 nM antibody, and 180 nM probe.

The Kd is the equilibrium constant for the complex coming apart.

Sequence of Histone deacetylase 2 (Q92769 whole entry): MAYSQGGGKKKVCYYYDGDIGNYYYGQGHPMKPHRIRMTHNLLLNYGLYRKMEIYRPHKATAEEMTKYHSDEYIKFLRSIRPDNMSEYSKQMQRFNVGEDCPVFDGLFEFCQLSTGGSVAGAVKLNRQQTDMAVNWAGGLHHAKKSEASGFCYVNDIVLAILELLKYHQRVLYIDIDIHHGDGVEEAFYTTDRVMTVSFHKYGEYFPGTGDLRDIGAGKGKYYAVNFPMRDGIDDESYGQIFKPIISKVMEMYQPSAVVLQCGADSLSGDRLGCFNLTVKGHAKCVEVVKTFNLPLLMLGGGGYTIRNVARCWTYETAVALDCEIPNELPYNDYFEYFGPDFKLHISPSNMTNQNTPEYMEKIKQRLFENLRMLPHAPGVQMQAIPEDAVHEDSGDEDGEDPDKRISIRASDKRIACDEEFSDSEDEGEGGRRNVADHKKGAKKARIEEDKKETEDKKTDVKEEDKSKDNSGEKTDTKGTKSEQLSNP

In the case of `Nc1ccc(-c2ccncc2)cc1NC(=O)N1Cc2cncnc2C1`, the dissociation constant (Kd) is less than 0.1 µM.

The values are drawn from ChEMBL document CHEMBL5727311, “Heterobicyclic N-aminophenyl-amides as inhibitors of histone deacetylase” (2019).
